Test results published in the supplement of paper PMC10307832.

Columns and labels:
Assay in all cases: relative viability (nuclei count vs DMSO), 5 days (fraction); higher = more cells survive
BAY61-3606 + Phenformin = compound: COC1=C(C=C(C=C1)C2=CC3=NC=CN3C(=N2)NC4=C(C=CC=N4)C(=O)N)OC [BAY61-3606] + N=C(N)NC(=N)NCCc1ccccc1 [Phenformin] (partner 250 µM)
In short: (§1)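 Nuclei were stained with Hoechst during a one-step fixation (final 0.05% Triton X-100, 1% formaldehyde, 1 ug/ml Hoechst) carried out 5 days after dosing, then counted on 4× images. The cells, lung cancer lines in 1536-well plates, had been dosed by pin tool the day after seeding with one drug alone or a fixed anchor-drug dose plus five library-drug doses (not always all listed) in √10 steps. Relative viability is the nuclei count in treated wells divided by that in vehicle wells, and each value is the median of duplicate plates.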

Doxorubicin + Bortezomib = compound: COc1cccc2c1C(=O)c1c(O)c3c(c(O)c1C2=O)C[C@@](O)(C(=O)CO)C[C@@H]3O[C@H]1C[C@H](N)[C@H](O)[C@H](C)O1 [Doxorubicin] + CC(C)C[C@H](NC(=O)[C@H](Cc1ccccc1)NC(=O)c1cnccn1)B(O)O [Bortezomib] (partner 0.002 µM)
In short: as §1

Doxorubicin + Lapatinib = compound: COc1cccc2c1C(=O)c1c(O)c3c(c(O)c1C2=O)C[C@@](O)(C(=O)CO)C[C@@H]3O[C@H]1C[C@H](N)[C@H](O)[C@H](C)O1 [Doxorubicin] + CS(=O)(=O)CCNCc1ccc(-c2ccc3ncnc(Nc4ccc(OCc5cccc(F)c5)c(Cl)c4)c3c2)o1 [Lapatinib] (partner 2 µM)
In short: as §1

BAY61-3606 + Tozasertib = compound: COC1=C(C=C(C=C1)C2=CC3=NC=CN3C(=N2)NC4=C(C=CC=N4)C(=O)N)OC [BAY61-3606] + Cc1cc(Nc2cc(N3CCN(C)CC3)nc(Sc3ccc(NC(=O)C4CC4)cc3)n2)n[nH]1 [Tozasertib] (partner 0.1 µM)
In short: as §1

| Cell Line | relative viability (BAY61-3606 + Phenformin; first compound 0.02 µM) | relative viability (BAY61-3606 + Phenformin; first compound 0.06325 µM) | relative viability (BAY61-3606 + Phenformin; first compound 0.2 µM) | relative viability (BAY61-3606 + Phenformin; first compound 0.6325 µM) | relative viability (BAY61-3606 + Phenformin; first compound 2 µM) | relative viability (Doxorubicin + Bortezomib; first compound 0.001 µM) | relative viability (Doxorubicin + Bortezomib; first compound 0.003162 µM) | relative viability (Doxorubicin + Bortezomib; first compound 0.01 µM) | relative viability (Doxorubicin + Bortezomib; first compound 0.03162 µM) | relative viability (Doxorubicin + Bortezomib; first compound 0.1 µM) | relative viability (Doxorubicin + Lapatinib; first compound 0.001 µM) | relative viability (Doxorubicin + Lapatinib; first compound 0.003162 µM) | relative viability (Doxorubicin + Lapatinib; first compound 0.01 µM) | relative viability (Doxorubicin + Lapatinib; first compound 0.03162 µM) | relative viability (Doxorubicin + Lapatinib; first compound 0.1 µM) | relative viability (BAY61-3606 + Tozasertib; first compound 0.02 µM) | relative viability (BAY61-3606 + Tozasertib; first compound 0.06325 µM) | relative viability (BAY61-3606 + Tozasertib; first compound 0.2 µM) | relative viability (BAY61-3606 + Tozasertib; first compound 0.6325 µM) | relative viability (BAY61-3606 + Tozasertib; first compound 2 µM) |
| --- | --- | --- | --- | --- | --- | --- | --- | --- | --- | --- | --- | --- | --- | --- | --- | --- | --- | --- | --- | --- |
| HARA | 0.433 | 0.35 | 0.432 | 0.494 | 0.369 | 1.1 | 0.993 | 1.11 | 1.08 | 1 | 0.599 | 0.591 | 0.893 | 0.62 | 0.659 | 0.144 | 0.13 | 0.11 | 0.123 | 0.0865 |
| IA-LM | – | – | – | – | – | 0.819 | 0.877 | 0.648 | 0.404 | 0.136 | 0.845 | 0.957 | 0.638 | 0.18 | 0.112 | – | – | – | – | – |
| LCLC-103H | 0.342 | 0.328 | 0.297 | 0.328 | 0.352 | 1.07 | 1.12 | 1.08 | 1.14 | 1.12 | – | – | – | – | – | 0.459 | 0.335 | 0.484 | 0.352 | 0.213 |
| LK-2 | 0.389 | 0.307 | 0.368 | 0.463 | 0.221 | – | – | – | – | – | 0.879 | 0.74 | 0.804 | 0.724 | 0.81 | 0.19 | 0.163 | 0.193 | 0.158 | 0.21 |
| NCI-H358 | 0.371 | 0.32 | 0.351 | 0.244 | 0.158 | – | – | – | – | – | 0.503 | 0.441 | 0.334 | 0.195 | 0.207 | 0.108 | 0.111 | 0.107 | 0.103 | 0.0821 |
| NCI-H441 | 0.818 | 0.934 | 0.782 | 0.972 | 0.652 | – | 0.452 | 0.392 | 0.295 | 0.315 | – | – | – | – | – | 0.636 | 0.558 | 0.363 | 0.314 | 0.274 |
| NCI-H522 | 0.634 | 0.624 | 0.674 | 0.749 | 0.557 | – | – | – | – | – | – | – | – | – | – | 0.562 | 0.517 | 0.527 | 0.574 | 0.5 |
| NCI-H1299 | – | – | – | – | – | 1.04 | 1.03 | 1.01 | 1.07 | 0.962 | 0.988 | 0.973 | 0.955 | 0.889 | 0.514 | – | – | – | – | – |
| NCI-H1395 | 0.459 | 0.371 | 0.444 | 0.469 | 0.414 | – | – | – | – | – | 0.921 | 0.986 | 0.949 | 0.803 | 0.607 | 0.722 | 0.679 | 0.682 | 0.781 | 0.411 |
| NCI-H1563 | 0.631 | 0.59 | 0.604 | 0.62 | 0.61 | 0.716 | 0.772 | 0.594 | 0.515 | 0.421 | 0.721 | 0.779 | 0.661 | 0.545 | 0.549 | – | – | – | – | – |
| NCI-H1623 | 0.58 | 0.522 | 0.588 | 0.58 | 0.588 | – | – | – | – | – | – | – | – | – | – | 0.485 | 0.439 | 0.458 | 0.394 | 0.328 |
| NCI-H1648 | – | – | – | – | – | – | – | – | – | – | – | – | – | – | – | 0.376 | 0.356 | 0.448 | 0.408 | 0.231 |
| NCI-H1703 | – | – | – | – | – | 0.234 | 0.324 | 0.25 | 0.165 | 0.0968 | 0.821 | 1.14 | 0.448 | 0.241 | 0.21 | – | – | – | – | – |
| NCI-H1792 | 0.37 | – | 0.336 | 0.544 | 0.333 | 0.929 | 1.1 | 1 | 0.898 | 0.924 | 0.942 | 0.911 | 0.874 | 0.865 | 0.89 | – | – | – | – | – |
| NCI-H1793 | 0.363 | 0.216 | – | 0.41 | 0.271 | – | – | – | – | – | – | 0.93 | 0.643 | 0.537 | 0.659 | 0.313 | 0.227 | – | 0.203 | 0.222 |
| NCI-H1944 | 0.211 | 0.196 | 0.193 | 0.201 | 0.182 | – | – | – | – | – | 0.872 | 0.827 | 0.857 | 0.693 | 0.841 | 0.256 | 0.224 | 0.239 | 0.249 | 0.215 |
| NCI-H2170 | 0.399 | 0.356 | 0.434 | 0.401 | 0.385 | – | – | – | – | – | 0.263 | 0.264 | 0.259 | 0.266 | 0.285 | 0.714 | 0.475 | 0.751 | 0.607 | 0.213 |
| NCI-H2342 | 0.629 | 0.65 | 0.535 | 0.586 | 0.662 | – | – | – | – | – | – | – | – | – | – | 0.574 | 0.466 | 0.47 | 0.668 | 0.525 |
| SK-MES-1 | 0.729 | 0.586 | 0.633 | 0.685 | 0.57 | – | – | – | – | – | 0.423 | 0.444 | 0.489 | 0.396 | 0.409 | 0.889 | 0.819 | 0.623 | 0.61 | 0.135 |
| SW 900 | 0.736 | 0.456 | 0.489 | 0.594 | 0.473 | – | – | – | – | – | – | – | – | – | – | 0.576 | 0.582 | 0.372 | 0.294 | 0.237 |
